Reference: US20140171357A1, “VANCOMYCIN DERIVATIVES” (Seachald Pharmaceuticals, Inc., priority 2011, published 2014)
Converted amounts (≈) assume the structure as drawn.

Tests used:
[1] = system: vancomycin-susceptible E. faecalis (23); test: MIC broth microdilution, vancomycin-susceptible E. faecalis; settings: for MIC 50% / MIC 90%: E. faecalis, vancomycin-susceptible (23)
[2] = system: VanB vancomycin-resistant E. faecalis (12); test: MIC broth microdilution, VanB E. faecalis; settings: for MIC 50% / MIC 90%: E. faecalis, VanB (12)
[3] = system: VanC enterococci (22); test: MIC broth microdilution, vanC-carrying enterococci; settings: for MIC 50% / MIC 90%: VanC enterococci (22)
[4] = system: E. faecalis; test: MIC broth microdilution, E. faecalis regardless of vancomycin susceptibility; settings: Enterococcus faecalis
[5] = system: methicillin-susceptible S. aureus (MSSA, 22); test: MIC broth microdilution, MSSA; settings: for MIC 50% / MIC 90%: MSSA (22)
[6] = system: Staphylococcus epidermidis (43 strains); test: MIC broth microdilution, S. epidermidis; settings: for MIC 50% / MIC 90%: S. epidermidis (43)
[7] = system: methicillin-resistant S. aureus (MRSA, 22); test: MIC broth microdilution, MRSA; settings: for MIC 50% / MIC 90%: MRSA (22)
[8] = system: VanA vancomycin-resistant E. faecium (10); test: MIC broth microdilution, VanA E. faecium; settings: for MIC 50% / MIC 90%: E. faecium, VanA (10)
[9] = system: VanA vancomycin-resistant E. faecalis (11); test: MIC broth microdilution, VanA E. faecalis; settings: for MIC 50% / MIC 90%: E. faecalis, VanA (11)
[10] = system: VanB vancomycin-resistant E. faecium (10); test: MIC broth microdilution, VanB E. faecium; settings: for MIC 50% / MIC 90%: E. faecium, VanB (10)
[11] = system: Staphylococcus aureus (65 strains); test: MIC broth microdilution, S. aureus all isolates; settings: for MIC 50% / MIC 90%: S. aureus (65), all resistance subsets
[12] = system: vancomycin-susceptible E. faecium (21); test: MIC broth microdilution, vancomycin-susceptible E. faecium; settings: for MIC 50% / MIC 90%: E. faecium, vancomycin-susceptible (21)
[13] = system: vancomycin-intermediate S. aureus (VISA, 5); test: MIC broth microdilution, VISA
[14] = system: heterogeneous VISA (hVISA, 10); test: MIC broth microdilution, hVISA
[15] = system: S. pneumoniae (22); test: MIC broth microdilution, S. pneumoniae; settings: for MIC 50% / MIC 90%: S. pneumoniae (22), MHB + lysed horse blood
[16] = system: S. aureus ATCC 25923; test: Neutropenic murine thigh infection model; settings: for AUCc-t (AUC difference between control and treated animals): 24 h time kill
[17] = system: β-hemolytic streptococci (23); test: MIC broth microdilution, β-hemolytic streptococci; settings: for fold more potent than teicoplanin and daptomycin / fold more potent than vancomycin: β-hemolytic streptococci; for MIC 50% / MIC 90%: β-hemolytic streptococci (23), MHB + lysed horse blood
[18] = system: vancomycin-resistant S. aureus (VRSA, 6); test: MIC broth microdilution, VRSA
[19] = 1 mg/kg single intraperitoneal dose
[20] = 4 mg/kg single intraperitoneal dose
[21] = 16 mg/kg single intraperitoneal dose

With `CCCCCCCCCC(=O)N[C@@H](Cc1c[nH]c2ccccc12)C(=O)N[C@H](CC(N)=O)C(=O)N[C@@H](CC(=O)O)C(=O)N[C@@H]1C(=O)NCC(=O)N[C@@H](CCCN)C(=O)N[C@@H](CC(=O)O)C(=O)N[C@H](C)C(=O)N[C@@H](CC(=O)O)C(=O)NCC(=O)N[C@H](CO)C(=O)N[C@@H]([C@H](C)CC(=O)O)C(=O)N[C@@H](CC(=O)c2ccccc2N)C(=O)O[C@@H]1C` [Daptomycin, reference compound] the MIC50 ([1]; Enterococcus faecalis) was 1 µg/mL (≈ 0.617 µM), the MIC90 ([1]; Enterococcus faecalis) was 2 µg/mL (≈ 1.23 µM) and the MIC50 ([2]; Enterococcus faecalis) was 0.5 µg/mL (≈ 0.309 µM). For the same compound, the MIC90 ([2]; Enterococcus faecalis) was 1 µg/mL (≈ 0.617 µM), the MIC50 [3] was 1 µg/mL (≈ 0.617 µM) and the MIC90 [3] was 2 µg/mL (≈ 1.23 µM). The MIC50 [4] was 0.5 to 1 µg/mL (≈ 0.309 to 0.617 µM), the MIC90 [4] was 1 to 2 µg/mL (≈ 0.617 to 1.23 µM) and the MIC50 ([5]; Staphylococcus aureus, MSSA) was 0.25 µg/mL (≈ 0.154 µM). For the same compound, the MIC90 ([5]; Staphylococcus aureus, MSSA) was 0.5 µg/mL (≈ 0.309 µM), the MIC50 ([6]; Staphylococcus epidermidis) was 0.25 µg/mL (≈ 0.154 µM) and the MIC90 ([6]; Staphylococcus epidermidis) was 0.5 µg/mL (≈ 0.309 µM). For the same compound, the MIC50 ([7]; Staphylococcus aureus, MRSA) was 0.25 µg/mL (≈ 0.154 µM), the MIC90 ([7]; Staphylococcus aureus, MRSA) was 0.5 µg/mL (≈ 0.309 µM) and the MIC50 ([8]; Enterococcus faecium) was 2 µg/mL (≈ 1.23 µM). It also gave an MIC90 ([8]; Enterococcus faecium) of 2 µg/mL (≈ 1.23 µM), an MIC50 ([9]; Enterococcus faecalis) of 1 µg/mL (≈ 0.617 µM) and an MIC90 ([9]; Enterococcus faecalis) of 2 µg/mL (≈ 1.23 µM). It also gave an MIC50 ([10]; Enterococcus faecium) of 2 µg/mL (≈ 1.23 µM), an MIC90 ([10]; Enterococcus faecium) of 2 µg/mL (≈ 1.23 µM) and an MIC50 ([11]; Staphylococcus aureus) of 0.25 µg/mL (≈ 0.154 µM). It also gave an MIC90 ([11]; Staphylococcus aureus) of 1 µg/mL (≈ 0.617 µM), an MIC50 ([12]; Enterococcus faecium) of 2 µg/mL (≈ 1.23 µM) and an MIC90 ([12]; Enterococcus faecium) of 2 µg/mL (≈ 1.23 µM).
With `CNC(CC(C)C)C(=O)NC1C(=O)NC(CC(N)=O)C(=O)NC2C(=O)NC3C(=O)NC(C(=O)NC(C(=O)NCCOCCOCCN(C)C)c4cc(O)cc(O)c4-c4cc3ccc4O)C(O)c3ccc(c(Cl)c3)Oc3cc2cc(c3OC2OC(CO)C(O)C(O)C2OC2CC(C)(NCc3ccc(-c4ccc(Cl)cc4)cc3)C(O)C(C)O2)Oc2ccc(cc2Cl)C1O` (stereo not shown) [Compound 10] the “MIC 50%” value [1] was 0.12 µg/mL (≈ 0.0664 µM), the “MIC 90%” value [1] was 0.12 µg/mL (≈ 0.0664 µM) and the “MIC 50%” value [13] was 0.25 µg/mL (≈ 0.138 µM). The “MIC 50%” value [2] was 0.12 µg/mL (≈ 0.0664 µM), the “MIC 90%” value [2] was 0.25 µg/mL (≈ 0.138 µM) and the “MIC 50%” value [3] was 0.12 µg/mL (≈ 0.0664 µM). For the same compound, the “MIC 90%” value [3] was 0.25 µg/mL (≈ 0.138 µM), the “MIC 50%” value [5] was 0.06 µg/mL (≈ 0.0332 µM) and the “MIC 90%” value [5] was 0.06 µg/mL (≈ 0.0332 µM). The “MIC 50%” value [6] was 0.03 µg/mL (≈ 0.0166 µM), the “MIC 90%” value [6] was 0.06 µg/mL (≈ 0.0332 µM) and the “MIC 50%” value [14] was 0.12 µg/mL (≈ 0.0664 µM). The “MIC 90%” value [14] was 0.12 µg/mL (≈ 0.0664 µM), the “MIC 50%” value [15] was 0.03 µg/mL and the “MIC 90%” value [15] was 0.06 µg/mL. For the same compound, the “Max Kill (maximum decrease from initial infection level)” value [16, 19] was 0.43 Log10 CFU/thigh, the “AUCc-t (AUC difference between control and treated animals)” value [16, 19] was 10.7 (Log10 CFU/thigh)/hr and the “Max Kill (maximum decrease from initial infection level)” value [16, 20] was −0.06 Log10 CFU/thigh. The “AUCc-t (AUC difference between control and treated animals)” value [16, 20] was 22.4 (Log10 CFU/thigh)/hr, the “Max Kill (maximum decrease from initial infection level)” value [16, 21] was −0.02 Log10 CFU/thigh and the “AUCc-t (AUC difference between control and treated animals)” value [16, 21] was 25.6 (Log10 CFU/thigh)/hr. For the same compound, the “fold more potent than teicoplanin and daptomycin” value [17] was “two- to four”, the “fold more potent than vancomycin” value [17] was “four- to eight” and the “MIC 50%” value [17] was 0.03 µg/mL. For the same compound, the “MIC 90%” value [17] was 0.12 µg/mL, the “MIC 50%” value [7] was 0.06 µg/mL (≈ 0.0332 µM) and the “MIC 90%” value [7] was 0.12 µg/mL (≈ 0.0664 µM). For the same compound, the “MIC 50%” value [8] was 1 µg/mL (≈ 0.553 µM), the “MIC 90%” value [8] was 2 µg/mL (≈ 1.11 µM) and the “MIC 50%” value [9] was 4 µg/mL (≈ 2.21 µM). For the same compound, the “MIC 90%” value [9] was 8 µg/mL (≈ 4.42 µM), the “MIC 50%” value [10] was 0.06 µg/mL (≈ 0.0332 µM) and the “MIC 90%” value [10] was 0.06 µg/mL (≈ 0.0332 µM). The “MIC 50%” value [11] was 0.06 µg/mL (≈ 0.0332 µM), the “MIC 90%” value [11] was 0.25 µg/mL (≈ 0.138 µM) and the “MIC 50%” value [18] was 4 µg/mL (≈ 2.21 µM). The “MIC 50%” value [12] was 0.06 µg/mL (≈ 0.0332 µM) and the “MIC 90%” value [12] was 0.06 µg/mL (≈ 0.0332 µM).
In the case of `CCCCCCCCCCNCCNC1(C)CC(OC2C(Oc3c4cc5cc3Oc3ccc(cc3Cl)C(O)C3NC(=O)C(NC(=O)C5NC(=O)C(CC(N)=O)NC(=O)C(NC(=O)C(CC(C)C)NC)C(O)c5ccc(c(Cl)c5)O4)c4ccc(O)c(c4)-c4c(cc(O)c(CNCCOCCOCCN)c4O)C(C(=O)O)NC3=O)OC(CO)C(O)C2O)OC(C)C1O` (stereo not shown) [Compound 3], the “MIC 50%” value [1] is reported as 0.06 µg/mL (≈ 0.0335 µM), the “MIC 90%” value [1] is reported as 0.06 µg/mL (≈ 0.0335 µM) and the “MIC 50%” value [13] is reported as 0.12 µg/mL (≈ 0.0669 µM). For the same compound, the “MIC 50%” value [2] was 0.06 µg/mL (≈ 0.0335 µM), the “MIC 90%” value [2] was 0.12 µg/mL (≈ 0.0669 µM) and the “MIC 50%” value [3] was 0.06 µg/mL (≈ 0.0335 µM). For the same compound, the “MIC 90%” value [3] was 0.12 µg/mL (≈ 0.0669 µM), the “MIC 50%” value [5] was 0.03 µg/mL (≈ 0.0167 µM) and the “MIC 90%” value [5] was 0.06 µg/mL (≈ 0.0335 µM). For the same compound, the “MIC 50%” value [6] was 0.03 µg/mL (≈ 0.0167 µM), the “MIC 90%” value [6] was 0.03 µg/mL (≈ 0.0167 µM) and the “MIC 50%” value [14] was 0.06 µg/mL (≈ 0.0335 µM). For the same compound, the “MIC 90%” value [14] was 0.06 µg/mL (≈ 0.0335 µM), the “fold more potent than linezolid” value ([15]; S. pneumoniae) was 32 fold and the “MIC 50%” value [15] was 0.015 µg/mL. For the same compound, the “MIC 90%” value [15] was 0.03 µg/mL, the “Max Kill (maximum decrease from initial infection level)” value [16, 19] was −0.2 Log10 CFU/thigh and the “AUCc-t (AUC difference between control and treated animals)” value [16, 19] was 28.4 (Log10 CFU/thigh)/hr. The “Max Kill (maximum decrease from initial infection level)” value [16, 20] was −0.41 Log10 CFU/thigh, the “AUCc-t (AUC difference between control and treated animals)” value [16, 20] was 32.3 (Log10 CFU/thigh)/hr and the “Max Kill (maximum decrease from initial infection level)” value [16, 21] was −1.08 Log10 CFU/thigh. The “AUCc-t (AUC difference between control and treated animals)” value [16, 21] was 52.9 (Log10 CFU/thigh)/hr, the “organism reduction across doses” value ([16]; 1, 4 and 16 mg/kg intraperitoneal) was “organism reduction over the entire dose range” and the “in vivo efficacy against S. aureus (in words)” value ([16]; neutropenic soft tissue infection model) was “bactericidal characteristics and prolonged in vivo activity”. The “fold more potent than teicoplanin and daptomycin” value [17] was “two- to four”, the “fold more potent than vancomycin” value [17] was “four- to eight” and the “MIC 50%” value [17] was 0.03 µg/mL. For the same compound, the “MIC 90%” value [17] was 0.12 µg/mL, the “MIC 50%” value [7] was 0.03 µg/mL (≈ 0.0167 µM) and the “MIC 90%” value [7] was 0.06 µg/mL (≈ 0.0335 µM). The “MIC 50%” value [8] was 2 µg/mL (≈ 1.12 µM), the “MIC 90%” value [8] was 4 µg/mL (≈ 2.23 µM) and the “MIC 50%” value [9] was 4 µg/mL (≈ 2.23 µM). The “MIC 90%” value [9] was 8 µg/mL (≈ 4.46 µM), the “MIC 50%” value [10] was 0.015 µg/mL (≈ 0.00837 µM) and the “MIC 90%” value [10] was 0.015 µg/mL (≈ 0.00837 µM). For the same compound, the “MIC 50%” value [11] was 0.03 µg/mL (≈ 0.0167 µM), the “MIC 90%” value [11] was 0.12 µg/mL (≈ 0.0669 µM) and the “MIC 50%” value [18] was 1 µg/mL (≈ 0.558 µM). For the same compound, the “MIC 50%” value [12] was 0.015 µg/mL (≈ 0.00837 µM) and the “MIC 90%” value [12] was 0.03 µg/mL (≈ 0.0167 µM).
